The values below come from patent US7585895B2, “Therapeutic substituted cyclopentanes” (Allergan, Inc., priority 2005, dated 2009).

In one test the target is T1, EP4 receptors (Homo sapiens, UniProt P35408).
T1 construct: expressed in transfected cells; membrane pellet
Put plainly: Radioligand binding, [3H]PGE2, EP4 (Ki). As to conditions: HEK-293 cells stably expressing EP4, [3H]PGE2. As to the method:
HEK-293 cells stably expressing the human or feline FP receptor, or EP1, EP2, or EP4 receptors were washed with TME buffer, scraped from the bottom of the flasks, and homogenized for 30 sec using a Brinkman PT 10/35 polytron. TME buffer was added to achieve a final 40 ml volume in the centrifuge tubes (the composition of TME is 100 mM TRIS base, 20 mM MgCl2, […]; 10N HCl is added to achieve a pH of 7.4).
The cell homogenate was centrifuged at 19000 r.p.m. for 20 min at 4° C using a Beckman Ti-60 rotor. The resultant pellet was resuspended in TME buffer to give a final 1 mg/ml protein concentration, as determined by Biorad assay. Radioligand binding competition assays vs. [^3H-]17-phenyl PGF2α. (5 nM) were performed in a 100 μl volume for 60 min. Binding reactions were started by adding plasma membrane fraction. The reaction was terminated by the addition of 4 ml ice-cold TRIS-HCl buffer and rapid filtration through glass fiber GF/B filters using a Brandel cell harvester. The filters were washed 3 times with ice-cold buffer and oven dried for one hour.
[^3H-] PGE2 (specific activity 180 Ci mmol) was used as the radioligand for EP receptors. [^3H] 17-phenyl PGF2α, was employed for FP receptor binding studies. Binding studies employing EP1, EP2, EP4 and FP receptors were performed in duplicate in at least three separate experiments. A 200 μl assay volume was used. Incubations were for 60 min at 25° C. and were terminated by the addition of 4 ml of ice-cold 50 mM TRIS-HCl, followed by rapid filtration through Whatman GF/B filters and three additional 4 ml washes in a cell harvester (Brandel). Competition studies were performed using a final concentration of 5 nM [^3H]-PGE2, or 5 nM [^3H] 17-phenyl PGF2αand non-specific binding determined with 10^−5M of unlabeled PGE2, or 17-phenyl PGF2α, according to receptor subtype studied.

The next test deals with T2, hDP/Gqs5 (Homo sapiens, UniProt Q13258).
T2 construct: expressed in transfected cells
T2 sequence (Q13258 1-359): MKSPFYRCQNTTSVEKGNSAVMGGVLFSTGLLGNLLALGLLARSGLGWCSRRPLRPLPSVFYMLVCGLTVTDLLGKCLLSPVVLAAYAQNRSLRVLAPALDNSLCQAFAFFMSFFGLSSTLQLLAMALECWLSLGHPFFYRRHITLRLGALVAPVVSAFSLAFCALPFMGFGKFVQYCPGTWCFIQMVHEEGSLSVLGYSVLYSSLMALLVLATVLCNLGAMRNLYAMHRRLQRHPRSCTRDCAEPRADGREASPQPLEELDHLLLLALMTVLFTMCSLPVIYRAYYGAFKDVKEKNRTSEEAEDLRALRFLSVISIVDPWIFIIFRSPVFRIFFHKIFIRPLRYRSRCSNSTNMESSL
Put plainly: FLIPR calcium signal, DP. The format is cell-based. As to conditions: HEK-293(EBNA). As to the method: (§1) HEK-293(EBNA) cells, stably expressing one type or subtype of recombinant human prostaglandin receptors (prostaglandin receptors expressed: hDP/Gqs5; hEP1; hEP2/Gqs5; hEP3A/Gqi5; hEP4/Gqs5; hFP; hIP; hTP), were cultured in 100 mm culture dishes in high-glucose DMEM medium containing 10% fetal bovine serum, 2 mM 1-glutamine, 250 μg/ml geneticin (G418) and 200 μg/ml hygromycin B as selection markers, and 100 units/ml penicillin G, 100 μg/ml streptomycin and 0.25 μg/ml amphotericin B.
(§2) Cells were seeded at a density of 5×10^4 cells per well in Biocoat® Poly-D-lysine-coated black-wall, clear-bottom 96-well plates (Becton-Dickinson) and allowed to attach overnight in an incubator at 37° C. Cells were then washed two times with HBSS-HEPES buffer (Hanks Balanced Salt Solution without bicarbonate and phenol red, 20 mM HEPES, pH 7.4) using a Denley Cellwash plate washer (Labsystems). After 45 minutes of dye-loading in the dark, using the calcium-sensitive dye Fluo-4 AM at a final concentration of 2 μM, plates were washed four times with HBSS-HEPES buffer to remove excess dye leaving 100 μl in each well. Plates were re-equilibrated to 37° C. for a few minutes.
(§3) Cells were excited with an Argon laser at 488 nm, and emission was measured through a 510-570 nm bandwidth emission filter (FLIPR™, Molecular Devices, Sunnyvale, Calif.). Drug solution was added in a 50 μl volume to each well to give the desired final concentration. The peak increase in fluorescence intensity was recorded for each well. On each plate, four wells each served as negative (HBSS-HEPES buffer) and positive controls (standard agonists: BW245C (hDP); PGE2 (HEP1; hEP2/Gqs5; hEP3A/Gqi5; hEP4/Gqs5); PGF2α (hFP); carbacyclin (hIP); U-46619 (hTP), depending on receptor). The peak fluorescence change in each drug-containing well was then expressed relative to the controls.
(§4) Compounds were tested in a high-throughput (HTS) or concentration-response (CoRe) format. In the HTS format, forty-four compounds per plate were examined in duplicates at a concentration of 10^−5 M. To generate concentration-response curves, four compounds per plate were tested in duplicates in a concentration range between 10^−5 and 10^−11 M. The duplicate values were averaged. In either, HTS or CoRe format each compound was tested on at least 3 separate plates using cells from different passages to give an n≧3.

For a further test, the target named is T3, hIP (Homo sapiens, UniProt P43119).
T3 construct: expressed in transfected cells
Put plainly: FLIPR calcium signal, IP. The format is cell-based. As to conditions: HEK-293(EBNA); for EC50: read-out: Ca2+ Signal-EC50 (nM) IP. As to the method: as §1, §2, §3, §4

T1 sequence (P35408 whole entry): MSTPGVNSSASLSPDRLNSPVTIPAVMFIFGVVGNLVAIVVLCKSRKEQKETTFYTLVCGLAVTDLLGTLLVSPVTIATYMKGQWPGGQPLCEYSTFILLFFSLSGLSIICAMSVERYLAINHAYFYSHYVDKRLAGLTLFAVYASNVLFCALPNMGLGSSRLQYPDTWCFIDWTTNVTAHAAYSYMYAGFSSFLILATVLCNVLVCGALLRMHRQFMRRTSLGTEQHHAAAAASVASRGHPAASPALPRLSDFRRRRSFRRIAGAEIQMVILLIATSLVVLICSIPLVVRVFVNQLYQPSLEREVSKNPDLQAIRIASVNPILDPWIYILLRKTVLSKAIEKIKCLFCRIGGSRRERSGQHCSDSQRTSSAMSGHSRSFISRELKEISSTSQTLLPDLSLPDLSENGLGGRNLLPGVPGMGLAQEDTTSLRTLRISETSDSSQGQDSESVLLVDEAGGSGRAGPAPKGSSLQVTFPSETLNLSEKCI
T3 sequence (P43119 whole entry): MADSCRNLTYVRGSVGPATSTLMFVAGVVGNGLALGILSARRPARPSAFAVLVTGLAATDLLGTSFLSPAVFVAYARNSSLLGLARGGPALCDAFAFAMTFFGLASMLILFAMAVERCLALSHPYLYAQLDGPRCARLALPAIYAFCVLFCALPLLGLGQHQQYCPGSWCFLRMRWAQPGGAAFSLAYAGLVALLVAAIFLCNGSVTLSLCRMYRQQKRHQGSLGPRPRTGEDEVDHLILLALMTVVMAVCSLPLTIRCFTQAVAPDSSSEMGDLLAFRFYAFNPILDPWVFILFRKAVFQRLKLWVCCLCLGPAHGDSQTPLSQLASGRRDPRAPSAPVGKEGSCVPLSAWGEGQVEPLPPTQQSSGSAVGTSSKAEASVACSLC

In turn, `O=C(O)CCCCCC[C@@H]1[C@@H](c2ccc(C(O)CC3CCCCC3)cc2)[C@H](O)C[C@H]1Cl` (stereo partly drawn) [Entry 18, 7-{(1R,2S,3R,5R)-5-Chloro-2-[4-(2-cyclohexyl-1-hydroxy-ethyl)-phenyl]-3-hydroxy-cyclopentyl}-heptanoic acid] gave a Ki at EP4 receptors of 4940 nM. On hDP/Gqs5, the “Ca2+ Signal-EC50 (nM) DP” value is on record as “not active”. Also, the “Ca2+ Signal-EC50 (nM) IP” value on hIP is listed as “not active”.

`O=C(O)CCC/C=C\C[C@@H]1[C@@H](c2ccc(C(O)CCC3CCCCC3)cc2)[C@H](O)C[C@H]1Cl` (stereo partly drawn) [Entry 15, (Z)-7-{(1R,2S,3R,5R)-5-Chloro-2-[4-(3-cyclohexyl-1-hydroxy-propyl)-phenyl]-3-hydroxy-cyclopentyl}-hept-5-enoic acid] gave a Ki on EP4 receptors of 3810 nM. The “Ca2+ Signal-EC50 (nM) DP” value at hDP/Gqs5 is given as “not active”. The “Ca2+ Signal-EC50 (nM) IP” value at hIP was “not active”.

Regarding `CCCCCC(O)c1ccc([C@@H]2[C@@H](C/C=C\CCCC(=O)O)[C@H](Cl)C[C@H]2O)cc1` (single isomer, unassigned) [Entry 12], the Ki on EP4 receptors was > 10000 nM. The “Ca2+ Signal-EC50 (nM) DP” value at hDP/Gqs5 is recorded as “not active”. The “Ca2+ Signal-EC50 (nM) IP” value at hIP is “not active”.

The molecule `CCCCCC(O)c1ccc([C@@H]2[C@@H](CCCCCCC(=O)O)[C@H](Cl)C[C@H]2O)cc1` (stereo partly drawn) [Entry 14, 7-{(1R,2S,3R,5R)-5-Chloro-3-hydroxy-2-[4-(1-hydroxy-hexyl)-phenyl]-cyclopentyl}-heptanoic acid] showed a Ki at EP4 receptors of 8610 nM. For the same molecule, the “Ca2+ Signal-EC50 (nM) DP” value on hDP/Gqs5 is “not active”. In addition, the “Ca2+ Signal-EC50 (nM) IP” value on hIP is reported as “not active”.

Turning to `CCCCCC(O)C(C)(C)c1ccc([C@@H]2[C@@H](C/C=C\CCCC(=O)O)[C@H](Cl)C[C@H]2O)cc1` (stereo partly drawn) [Entry 31, (Z)-7-{(1R,2S,3R,5R)-5-Chloro-3-hydroxy-2-[4-(2-hydroxy-1,1-dimethyl-heptyl)-phenyl]-cyclopentyl}-hept-5-enoic acid], the Ki at EP4 receptors came out at 5410 nM. Also, at hDP/Gqs5, the “Ca2+ Signal-EC50 (nM) DP” value is “not active”. Moreover, on hIP, the “Ca2+ Signal-EC50 (nM) IP” value was “not active”.

`CCCCCC(O)c1ccc([C@@H]2[C@@H](Cc3cccc(CCC(=O)O)c3)[C@H](Cl)C[C@H]2O)cc1` (stereo partly drawn) [Entry 3, 3-(3-{(1R,2S,3R,5R)-5-Chloro-3-hydroxy-2-[4-(1-hydroxy-hexyl)-phenyl]-cyclopentylmethyl}-phenyl)-propionic acid] gave a Ki on EP4 receptors of 3950 nM. In addition, on hDP/Gqs5, the “Ca2+ Signal-EC50 (nM) DP” value is “not active”. The “Ca2+ Signal-EC50 (nM) IP” value at hIP is “not active”.

Consider `CCCCCC(O)c1ccc([C@@H]2[C@@H](C/C=C\CCCC(=O)O)[C@H](F)C[C@H]2O)cc1` (mixture of isomers) [Entry 8, (Z)-7-{(1R,2S,3R,5R)-5-Fluoro-3-hydroxy-2-[4-(1-hydroxy-hexyl)-phenyl]-cyclopentyl}-hept-5-enoic acid], for which the Ki at EP4 receptors is > 10000 nM. For the same molecule, at hDP/Gqs5, the “Ca2+ Signal-EC50 (nM) DP” value is listed as “not active”. Further, the EC50 on hIP turned out to be 10100 nM.

Regarding `CCCC(O)c1ccc([C@@H]2[C@@H](C/C=C\CCCC(=O)O)[C@H](Cl)C[C@H]2O)cc1` (stereo partly drawn) [Entry 26, (Z)-7-{(1R,2S,3R,5R)-5-Chloro-3-hydroxy-2-[4-(1-hydroxy-butyl)-phenyl]-cyclopentyl}-hept-5-enoic acid], the Ki at EP4 receptors was > 10000 nM. On hDP/Gqs5, the “Ca2+ Signal-EC50 (nM) DP” value is “not active”. For the same molecule, at hIP, the “Ca2+ Signal-EC50 (nM) IP” value is “not active”.

Regarding `O=C(O)CCC/C=C\C[C@@H]1[C@@H](c2ccc(C(O)CCc3ccccc3)cc2)[C@H](O)C[C@H]1Cl` (stereo partly drawn) [Entry 23, (Z)-7-{(1R,2S,3R,5R)-5-Chloro-3-hydroxy-2-[4-(1-hydroxy-3-phenyl-propyl)-phenyl]-cyclopentyl}-hept-5-enoic acid], the Ki at EP4 receptors was > 10000 nM. Also, at hDP/Gqs5, the “Ca2+ Signal-EC50 (nM) DP” value is “not active”. In addition, the “Ca2+ Signal-EC50 (nM) IP” value on hIP is “not active”.

Turning to `CCCCCC(O)c1cccc([C@@H]2[C@@H](C/C=C\CCCC(=O)O)[C@H](Cl)C[C@H]2O)c1` (stereo partly drawn) [Entry 29, (Z)-7-{(1R,2S,3R,5R)-5-Chloro-3-hydroxy-2-[3-(1-hydroxy-hexyl)-phenyl]-cyclopentyl}-hept-5-enoic acid], the Ki on EP4 receptors is > 10000 nM. Also, at hDP/Gqs5, the “Ca2+ Signal-EC50 (nM) DP” value is “not active”. The concentration giving a half-maximal response (EC50) at hIP turned out to be 8490 nM.

As for `CCCCCC(O)c1ccc([C@@H]2[C@@H](C/C=C\CCCC(=O)O)[C@H](Cl)C[C@H]2O)cc1` (mixture of isomers) [Entry 11, (Z)-7-{(1R,2S,3R,5R)-5-Chloro-3-hydroxy-2-[4-(1-hydroxy-hexyl)-phenyl]-cyclopentyl}-hept-5-enoic acid], at EP4 receptors, the Ki is > 10000 nM. Moreover, on hDP/Gqs5, the “Ca2+ Signal-EC50 (nM) DP” value was “not active”. Further, the “Ca2+ Signal-EC50 (nM) IP” value on hIP is “not active”.

Regarding `CCCCCCc1ccc([C@@H]2[C@@H](C/C=C\CCCC(=O)O)[C@H](Cl)C[C@H]2O)cc1` [Entry 33, (Z)-7-[(1R,2S,3R,5R)-5-Chloro-2-(4-hexyl-phenyl)-3-hydroxy-cyclopentyl]-hept-5-enoic acid], on EP4 receptors, the Ki is > 10000 nM. Besides, the “Ca2+ Signal-EC50 (nM) DP” value at hDP/Gqs5 was “not active”. Further, the “Ca2+ Signal-EC50 (nM) IP” value on hIP is recorded as “not active”.

Regarding `O=C(O)CCCCCC[C@@H]1[C@@H](c2ccc(C(O)Cc3ccccc3)cc2)[C@H](O)C[C@H]1Cl` (stereo partly drawn) [Entry 22, 7-{(1 R,2S,3R,5R)-5-Chloro-3-hydroxy-2-[4-(1-hydroxy-2-phenyl-ethyl)-phenyl]-cyclopentyl}-heptanoic acid], the Ki at EP4 receptors is > 10000 nM. The “Ca2+ Signal-EC50 (nM) DP” value on hDP/Gqs5 was “not active”. In addition, the “Ca2+ Signal-EC50 (nM) IP” value on hIP is “not active”.

Consider `O=C(O)CCC/C=C\C[C@@H]1[C@@H](c2ccc(C(O)CC3CCCCC3)cc2)[C@H](O)C[C@H]1Cl` (mixture of isomers) [Entry 17, (Z)-7-{(1R,2S,3R,5R)-5-Chloro-2-[4-(2-cyclohexyl-1-hydroxy-ethyl)-phenyl]-3-hydroxy-cyclopentyl}-hept-5-enoic acid], for which, on EP4 receptors, the Ki is 15900 nM. Besides, the “Ca2+ Signal-EC50 (nM) DP” value on hDP/Gqs5 is on record as “not active”. Also, the “Ca2+ Signal-EC50 (nM) IP” value on hIP is “not active”.

The Ki is the equilibrium dissociation constant of an inhibitor or competing ligand from its target. High values mean weaker binding, low ones tighter binding. As a reminder, the EC50 is the concentration giving half of the maximal effect.
